Experimental findings from patent US11738001B2, “Pharmaceutical combinations and methods for the treatment of diabetes and associated disorders” (OTAGO INNOVATION LIMITED, priority 2017, dated 2023) are described below.

The test system of data set [1] is diet-induced obese (DIO) mice. In words: ipGTT after chronic metformin or pramlintide, alone or combined with the mix (Experiments 6-9). The format is in vivo, C57BL/6 mice. The procedure: (§1) For all experiments, 12-14 weeks old male C57BL/6 mice were obtained from the University of Otago animal facility. All procedures were approved by the University of Otago Animal Ethics Committee. Mice were housed individually under a 12:12 h light/dark cycle and ambient temperature was 23° C. Animals had either access to low-fat diet (LFD, containing 10% fat; cat. no. D12450B; Research Diets) or high-fat diet (HFD, containing 60% fat; cat. No. D12492; Research Diets) for a duration of 4 weeks, and water ad libitum. For each experiment a new cohort of animals was employed.
Separate cohorts of mice were treated with the respective control injections. Mice were fasted for 16 h and an ipGTT was performed as described.
After chronic treatment with the well described antidiabetic drugs mice were fasted for 16 h and received the mix acutely (0.33 mg/kg; containing 5% ethanol). 60 minutes later we carried out an ipGTT as described previously.
(§2) Data were analysed by one-way ANOVA or repeated measures ANOVA followed by multiple comparison test, as appropriate, using GraphPad Prism 5 software (Graphpad Software, Inc.). The results are presented as means ±SEM, and differences were considered significant if p≤0.05.

In data set [2] the test system is diet-induced obese (DIO) mice. In words: intraperitoneal glucose tolerance test (ipGTT), acute oral treatment (Experiments 1-5). Format: in vivo, C57BL/6 mice. To be noted: HFD 4 weeks. As to the method: as §1
For all experiments, the formulations were prepared by forming an ethanol solution of the selected active ingredient(s), i.e. B, I or S individually, the mix or the extract, and then diluting to the desired concentration with 0.9 wt % NaCl aqueous solution.
To investigate whether the compounds either individually, a mixture of all three compounds (B, S and I; hereinafter referred to as “mix”) or the total extract of yellow Dahlia ‘Ruskin Diane’ petals acutely affect glucose homeostasis, intraperitoneal glucose tolerance tests (ipGTTs) were performed in diet-induced obese (DIO) mice as a model to mimic human prediabetes and impairments in glucose metabolism. Individual compounds, the mix or the total extract were dissolved in 0.9% NaCl containing 5% ethanol and administered orally. Mice (n=7-8/group) were fed either a high fat diet (HFD) or respective low fat diet (LFD) for 4 weeks, fasted for 16 h and received the different compounds/combinations or vehicle (0.9% NaCl containing 5% ethanol) by oral gavage. For example, for administration to a 50 g mouse, an oral gavage having a volume of 500 μl was prepared, the oral gavage contained 500 μg of extract or 50 μg of compound(s). The volume of the gavage administered was adjusted based on the weight of the mouse subject. Glucose (1.5 g/kg body weight; dissolved in 0.9% NaCl) was injected intraperitoneally (i.p.) 60 minutes after oral gavage treatment, and an ipGTT was performed. Blood glucose levels were measured using a commercially available glucometer (Accu-Check Performa; Roche) whilst truncating the tip of the tail with a fresh scalpel blade. For statistical validation, the area under the curve (AUC) was calculated.
These experiments establish dose responses of the individual compounds using different concentrations (20, 10, 3.3, 1, 0.33 mg/kg body weight), the mix (20, 10, 3.3, 1, 0.33 mg/kg body weight) or the extract (50, 20, 10, 3.3, 1 mg/kg) to determine the highest non-effective dose to allow for testing of synergism in combination with commercially available diabetes drugs in subsequent experiments. Mice were fed either LFD or HFD 4 weeks (Experiments 4 and 5). After mice were food deprived for 16 hours, an pGTT was carried out as previously described.
as §2

The nature of data set [3]: stability of extract and butein in vitro (RPLC). The format is physicochemical. The procedure: Experiments were carried out on dissolving/dispersing Dahlia ‘Ruskin Diane’ extract into aqueous buffer. […] To confirm the cause of instability of the buffered extract, the stability of butein was assessed in aqueous buffer at pH7 (butein was stable at pH4). […] By contrast, butein was stable when diluted into EtOH and stored under ambient conditions (FIG. 16). […] The conversion of butein to sulfuretin is an oxidative cyclisation.

The next data set is described as follows: solubility. Format: physicochemical. The following applies: pH7 buffer solution.
Data set [4] has as its system phosphorylation of AKT (pAKT). Nature of the data set: central insulin signalling: pAKT immunoreactive cells in the arcuate nucleus (Experiment 10). The format is in vivo, C57BL/6 mice. The following applies: insulin 1 mg/kg 15 min before perfusion; LFD and HFD fed mice vs vehicle-injected. The procedure: To identify a mode of action of how the compounds, formulations and the extract affect glucose homeostasis, effects on central insulin signalling by measuring phosphorylation of AKT (pAKT) were investigated. AKT is the main target of insulin in the arcuate nucleus of the hypothalamus. To assess the degree of insulin action in the hypothalamus, phosphorylated AKT positive cells were counted. Mice were fed LFD or HFD for 4 weeks, fasted for 16 h and bodyweight matched. Sixty minutes before transcardial perfusion they received B (10 mg/kg), I (10 mg/kg), S (10 mg/kg), the mix (3.3 mg/kg of each compound), the extract (10 mg/kg) or vehicle (0.9% NaCl containing 5% ethanol) by oral gavage. Additionally, mice received an insulin (1 mg/kg) or vehicle injection 15 minutes before transcardial perfusion. Immunohistochemistry was carried out on mouse brain coronal cryosections as described previously in Benzler J, et al. Diabetes. […]
To investigate the molecular mechanisms and to identify the molecular targets of the mix and the extract, mice were fed either a HFD or LFD for 4 weeks followed by treatment with the mix (3.3 mg/kg body weight each) or the extract (10 mg/kg) acutely by oral gavage. […] The target protein of the insulin signalling pathway, pAKT, was visualized by immunohistochemistry and quantified by counting pAKT immunoreactive cells.

Setting [5] is: Experiment 1: 10 mg/kg (mix: 3.3 mg/kg of each compound) oral gavage 1 h before ipGTT, vs HFD control.
[6] abbreviates: Experiment 3: 3.3 mg/kg (each) orally 1 h before ipGTT.

Consider `CN(C)C(=N)N=C(N)N` [metformin], for which the “glucose tolerance in ipGTT” value in data set [1] (Experiment 6: 300 mg/kg/d oral, twice daily, last 7 days, p=0.004 vs HFD control) is given as “improved glucose tolerance”. Also, the “highest dose that did not improve glucose tolerance” value in data set [1] (Experiment 6: oral gavage twice daily for last 7 days, HFD 4 weeks) stood at 100 mg/kg body weight.
As to `CC[C@H](C)[C@H](NC(=O)[C@@H]1CCCN1C(=O)CNC(=O)[C@H](Cc1ccccc1)NC(=O)[C@H](CC(N)=O)NC(=O)[C@H](CC(N)=O)NC(=O)[C@H](CO)NC(=O)[C@H](CO)NC(=O)[C@H](Cc1c[nH]cn1)NC(=O)[C@@H](NC(=O)[C@H](CC(C)C)NC(=O)[C@H](Cc1ccccc1)NC(=O)[C@H](CC(N)=O)NC(=O)[C@H](C)NC(=O)[C@H](CC(C)C)NC(=O)[C@H](CCCNC(=N)N)NC(=O)[C@H](CCC(N)=O)NC(=O)[C@@H](NC(=O)[C@H](C)NC(=O)[C@@H]1CSSC[C@H](NC(=O)[C@@H](N)CCCCN)C(=O)N[C@@H](CC(N)=O)C(=O)N[C@@H]([C@@H](C)O)C(=O)N[C@@H](C)C(=O)N[C@@H]([C@@H](C)O)C(=O)N1)[C@@H](C)O)C(C)C)C(=O)N[C@@H](CC(C)C)C(=O)N1CCC[C@H]1C(=O)N1CCC[C@H]1C(=O)N[C@H](C(=O)N[C@@H](CC(N)=O)C(=O)N[C@H](C(=O)NCC(=O)N[C@@H](CO)C(=O)N[C@@H](CC(N)=O)C(=O)N[C@H](C(=O)N[C@@H](Cc1ccc(O)cc1)C(N)=O)[C@@H](C)O)C(C)C)[C@@H](C)O` [pramlintide], the “glucose tolerance in ipGTT” value in data set [1] (Experiment 8: 1000 μg/kg/d s.c. twice daily for 5 days, p=0.0497 vs vehicle HFD) is “improved glucose tolerance”; in data set [1] (Experiment 8: the other concentrations (200, 40, 8, 1.6 μg/kg/d s.c.)) it was “no significant effect on glucose homeostasis”; in data set [1] (Experiment 9: pramlintide 200 μg/kg/d s.c. last 5 days and/or mix 0.33 mg/kg oral 1 h before ipGTT, vs HFD vehicle) it was “neither pramlintide alone at 200 μg/kg/d body weight (FIG. 9A) nor the mix at 0.33 mg/kg body weight (FIG. 9B) was able to improve glucose tolerance”. Also, the highest non-effective dose in data set [1] (Experiment 8: s.c. twice daily for last 5 days, HFD 4 weeks) is given as 200 μg/kg/d body weight.
As to `O=C1/C(=C/c2ccc(O)c(O)c2)Oc2cc(O)ccc21` [S, Sulfuretin], the “glucose tolerance in ipGTT” value in data set [2] (setting [5]) was “significantly improve glucose tolerance”; in data set [2] (setting [6]) it was “improved glucose tolerance”.
For `O=C(/C=C/c1ccc(O)cc1)c1ccc(O)cc1O` [I, Isoliquiritigenin], the figures for the “glucose tolerance in ipGTT” value in data set [2] (setting [5]) and in data set [2] (setting [6]) were “trend towards an improved glucose homeostasis” and “improved glucose tolerance”, respectively. Also, in data set [3], the “stability (concentration over time)” value is reported as “decreased in concentration much more slowly”.
`O=C(/C=C/c1ccc(O)c(O)c1)c1ccc(O)cc1O` [B, Butein]: the “glucose tolerance in ipGTT” value is recorded as “did not improve glucose tolerance” in data set [2] (setting [5]) and “no effect on glucose tolerance” in data set [2] (Experiment 2: 3.3 mg/kg of each compound orally 1 h before ipGTT, vs vehicle treated HFD mice). Further, the stability result in data set [3] (EtOH or DMSO solutions diluted into aqueous buffer at pH7, room temperature) is on record as “linear (zero order kinetics) conversion of butein to sulfuretin over time”; in data set [3] (aqueous buffer pH4), “stable”; in data set [3] (diluted into EtOH and stored under ambient conditions), “stable”. For the same compound, the “rate of conversion to sulfuretin” value in data set [3] (attempts to exclude oxygen) was “slowed the reaction”; in data set [3] (excluding light and adding a radical inhibitor) it was “no effects on reaction rate”. Further, the solubility result in the data set “solubility” is given as “limited solubility”.
“Insulin: insulin (1 mg/kg) injected to activate the insulin signalling pathway”: in data set [4], the “pAKT positive cells in the arcuate nucleus” value is given as “markedly increased pAKT positive cells”.
